Tests used:
[1] = system: permeabilised HepG2 cells; assay: Calcium retention capacity (CRC) assay in permeabilised HepG2 cells (MPTP opening); type: cell-based, human; parameters: CRC [10 μM]: unit not given here; settings: compound at 10 μM; for CRC [10 μM]: digitonin permeabilised HepG2 cells; for CRC [10 μM] (ratio vs CsA): normalised to cyclosporin A, value in brackets
Procedure: The use of permeabilised cells means that inhibitory compounds that may not normally enter non-permeabilised cells are more likely to be active.
The calcium retention capacity (CRC) is a measure of the capability of mitochondria to retain calcium, primarily in the form of calcium phosphates, in the mitochondrial matrix.
In a CRC assay, the calcium indicator Calcium Green-5N (InVitrogen) is utilized. […] The assay is carried out in HepG2 (human hepatocellular carcinoma) cells which are digitonin permeabilized. Trains of calcium pulses (typically 5 μM additions) are added which results in a sudden increase in fluorescence which is then reduced by mitochondrial buffering. The cells will reach a point at which the calcium addition is no longer buffered, an indication that the MPTP has opened (mitochondrial permeability transition).
The experiment is performed with and without inhibitor. A compound that acts to inhibit the mitochondrial pore opening will result in a greater requirement for calcium to reach the transition point. The results are normalised to a positive control (cyclosporin A) in each experiment. The results are shown in column 3 of Table 5 as CRC [10 μM] (ratio vs CsA). The method of digitonin permeabilised whole cell CRC assay is similar to that used by Chiara et al. (PLoS One, March, 3, 3, e1852 (2008)).

[2] = molecular target: cyclophilin D (Homo sapiens (Human), UniProt P30405); assay: Functional peptidyl prolyl isomerase (PPIase) spectrophotometric assay, cyclophilin D; type: biochemical; settings: second value of CypA/D cell; read-out: Ki CypD
Description: (§1) Cyclophilins are enzymes that catalyse the cis-trans isomerisation of peptide bonds to the amino acid proline. This event is important in many biological processes, including protein folding and signal transduction. […] The method to measure this activity and its inhibition is similar to that described by Jankowski (Analytical Biochemistry, 252, 2, 299-307 (1997)). The assay measures the cis to trans isomerisation of a peptide substrate catalysed by a PPlase enzyme using a UV/Vis spectrophotometer. This assay is a manual single cuvette-based assay. A first order rate equation is fitted to the absorbance data to obtain a rate constant. The catalytic rate is calculated from the enzymatic rate minus the background rate. The Ki (the concentration required to produce half maximum inhibition) for an inhibitor is obtained from the rate constant plotted against the inhibitor concentration. Typically, a 6-point dose response curve is obtained from duplicates and a Ki determined. Data are given in Table 5 as Ki [nM] for cyclophilins A and D, expressed in column 2 of Table 5 as Ki (cypA)/Ki (cypD).

[3] = system: SH-SY5Y cells; assay: Thapsigargin treated cell death assay in SH-SY5Y cells; type: cell-based, human; settings: compound at 10 μM, positive = protection from cell death, negative = compound toxicity
Description: Thapsigargin raises intracellular free calcium (Ca^2+) by potently inhibiting the endoplasmic reticulum Ca-ATPase, which sequesters Ca^2+ from the cytosol. The increased cytosolic Ca^2+ concentration is buffered by mitochondria by exchanging Ca^2+ for K, leading to depolarisation in the inner mitochondrial membrane and permeability transition.
The thapsigargin treated Jurkat cell death assay is a homogeneous 96 well plate based assay for cell death, instigated by the opening of the mitochondrial permeability transition pore (MPTP). The addition of thapsigargin to Jurkat cells results in an influx of calcium, the increase in intracellular calcium will initially be buffered by the mitochondria, but eventually the increasing calcium concentration will result in the opening of the MPTP, resulting in cell death.
CellTox™ Green is a dye which is unable to enter the cell until cell death leads to the loss of membrane integrity. Once this happens the CellTox™ Green enters the cell, binds to the cell's DNA and emits a fluorescent signal. […] Unless otherwise stated, the assay is typically run using a range of three compound concentrations of 1, 3 and 10 μM in triplicate and is read kinetically over a period of 24 hours. Compounds are added 30 minutes before the addition of thapsigargin. Compound only controls and positive control, cyclosporin A (CsA) (3 and 10 μM) are also included in the assay. Results are typically calculated at the 8 hour time point and the kinetic data is also reported.
The assay is carried out as described for the Jurkat cells but using the SH-SY5Y (human neuroblastoma) cell line instead of Jurkat cells. The results are shown in the fourth column of Table 5 (SY5Y [10 μM]% recovery). Positive numbers indicate protection from cell death, negative numbers indicate compound toxicity.

[4] = molecular target: cyclophilin A (Homo sapiens (Human), UniProt P62937); assay: Functional peptidyl prolyl isomerase (PPIase) spectrophotometric assay, cyclophilin A; type: biochemical; settings: first value of CypA/D cell
Description: as §1

Sequence of cyclophilin A (P62937 whole entry, species assumed): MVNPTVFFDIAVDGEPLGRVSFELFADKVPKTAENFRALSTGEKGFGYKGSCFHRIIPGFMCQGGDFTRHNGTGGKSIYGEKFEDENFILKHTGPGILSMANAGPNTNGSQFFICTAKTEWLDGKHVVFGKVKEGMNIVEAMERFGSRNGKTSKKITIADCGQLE
Sequence of cyclophilin D (P30405 30-207, species assumed): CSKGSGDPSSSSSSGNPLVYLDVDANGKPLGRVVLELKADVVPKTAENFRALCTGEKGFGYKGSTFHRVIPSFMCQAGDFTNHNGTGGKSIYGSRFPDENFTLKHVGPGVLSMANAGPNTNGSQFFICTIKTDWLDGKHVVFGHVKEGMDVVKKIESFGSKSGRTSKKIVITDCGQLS

SMILES	CRC [10 μM] [1]	CRC [10 μM] (ratio vs CsA) [1]	Ki [2] [nM]	SYSY [10 μM] % recovery [3] [%]	Ki [4] [nM]	other results
C[C@@H]1NC(=O)[C@H](Cc2ccc(NS(C)(=O)=O)cc2)OC(=O)C(C)(C)/C=C/c2ccc3ccc(nc3c2)N(C)NC(=O)[C@@H]2CCCN(N2)C1=O [Compound (46)]	25	1.00	2.5	29	3	
CC(C)[C@@H]1OC(=O)C(C)(C)/C=C/c2ccc3ccc(nc3c2)N(C)NC(=O)[C@@H]2CCCN(N2)C(=O)[C@H](CCC(=O)N2CCN(C)CC2)NC1=O [Compound (70)]	25	1.00	53	44	6.7	
CC(C)[C@@H]1OC(=O)C(C)(C)/C=C/c2ccc3ccc(nc3c2)N(C)NC(=O)[C@@H]2CCCN(N2)C(=O)[C@H](CCC(=O)NCC2CCOCC2)NC1=O [Compound (67)]	25	1.00	26	52	40	
CC(C)[C@@H]1OC(=O)C2(/C=C/c3ccc4ccc(nc4c3)N(C)NC(=O)[C@@H]3CCCN(N3)C(=O)[C@H](C)NC1=O)CCCC2 [Compound (21)]	32.5	0.93	6.1	33.8	2.5	
CC(C)[C@@H]1OC(=O)C(C)(C)/C=C/c2ccc3ccc(nc3c2)N(C)NC(=O)[C@@H]2CCCN(N2)C(=O)[C@H](CC2CCN(C)CC2)NC1=O [Compound (73)]	15	0.75	42	43	11	
C[C@@H]1NC(=O)C(Cc2cccc(N)n2)OC(=O)C(C)(C)/C=C/c2ccc3ccc(nc3c2)N(C)NC(=O)[C@@H]2CCCN(N2)C1=O (single isomer, unassigned) [Compound (51)]						SYSY [10 μM] % recovery ([3]; listed as 51): 37%
CNC(=O)c1ccc(CC2OC(=O)C(C)(C)/C=C/c3ccc4ccc(nc4c3)N(C)NC(=O)[C@@H]3CCCN(N3)C(=O)[C@H](C)NC2=O)cc1 (single isomer, unassigned) [Compound (38)]			190		160	CRC [10 μM] ([1]; listed as 38): 7.5; CRC [10 μM] (ratio vs CsA) ([1]; listed as 38): 0.33; SYSY [10 μM] % recovery ([3]; listed as 38): 8%
CC(C)[C@@H]1OC(=O)C(C)(C)/C=C/c2ccc3ccc(nc3c2)N(C)NC(=O)[C@@H]2CCCN(N2)C(=O)[C@H](CCC(=O)Nc2ccccc2)NC1=O [Compound (63)]	30	1.00	15	48	11	
CC(C)[C@@H]1OC(=O)C(C)(C)/C=C/c2ccc3ccc(nc3c2)N(Cc2ccccc2)NC(=O)[C@@H]2CCCN(N2)C(=O)[C@H](C)NC1=O [Compound (9)]	279.4	1	4.3	87.067	1.7	
C[C@@H]1NC(=O)[C@H](Cc2ccccc2Cl)OC(=O)C(C)(C)/C=C/c2ccc3ccc(nc3c2)N(C)NC(=O)[C@@H]2CCCN(N2)C1=O [Compound (81)]	20	0.67	9.4	44	9.7	
CC(C)[C@@H]1OC(=O)C(C)(C)/C=C/c2ccc3ccc(nc3c2)N(C)NC(=O)[C@@H]2CCCN(N2)C(=O)[C@H](CCC(=O)NCc2cnn(C)c2)NC1=O [Compound (68)]	25	0.83	9.9	37	16	
CC(C)[C@@H]1CC(=O)C(C)(C)/C=C/c2ccc3ccc(nc3c2)N(C)NC(=O)[C@@H]2CCCN(N2)C(=O)[C@H](C)NC1=O [Compound (25)]	20	0.8	6.2	26.2	17.5	
C[C@@H]1NC(=O)[C@H](CC2CCCNC2)OC(=O)C(C)(C)/C=C/c2ccc3ccc(nc3c2)N(C)NC(=O)[C@@H]2CCCN(N2)C1=O (stereo partly shown) [Compound (56)]	8	0.36	56.6	15	295	
C[C@@H]1NC(=O)[C@H](C[C@@H]2CCCN(C)C2)OC(=O)C(C)(C)/C=C/c2ccc3ccc(nc3c2)N(C)NC(=O)[C@@H]2CCCN(N2)C1=O [Compound (36)]	7.5	0.42	1400	19	390	
CC(C)[C@@H]1OC(=O)C(C)(C)/C=C/c2ccc3ccc(nc3c2)N(C)NC(=O)[C@@H]2CCCN(N2)C(=O)[C@H](CCC(=O)N[C@H](C)c2ccccc2)NC1=O [Compound (66)]	25	0.80	6.6	63	3.6	
C[C@@H]1NC(=O)C(Cc2cccc(N)n2)OC(=O)C(C)(C)/C=C/c2ccc3ccc(nc3c2)N(C)NC(=O)[C@@H]2CCCN(N2)C1=O (single isomer, unassigned) [Compound (52)]						SYSY [10 μM] % recovery ([3]; listed as 52): 35%
C[C@@H]1NC(=O)C(Cc2ccc(C(=O)O)cc2)OC(=O)C(C)(C)/C=C/c2ccc3ccc(nc3c2)N(C)NC(=O)[C@@H]2CCCN(N2)C1=O (single isomer, unassigned) [Compound (40)]						CRC [10 μM] ([1]; listed as 40): 5; CRC [10 μM] (ratio vs CsA) ([1]; listed as 40): 0.33; SYSY [10 μM] % recovery ([3]; listed as 40): 51%
C[C@@H]1NC(=O)[C@@H](CC2CCCNC2)OC(=O)C(C)(C)/C=C/c2ccc3ccc(nc3c2)N(C)NC(=O)[C@@H]2CCCN(N2)C1=O (single isomer, unassigned) [Compound (30)]	10	0.33	450			SYSY [10 μM] % recovery ([3]; listed as 30): 10%
